In US10702507B2, “Endoparasite control agent” (THE UNIVERSITY OF TOKYO, priority 2014, dated 2020):

System: 1st-stage larvae of Haemonchus contortus
Assay: Test for effect on motion of larvae of Haemonchus nematode
Conditions: 20 larvae per well, 27° C./95% RH for 4 days, corrected against DMSO negative control, duplicate
Description: Test for Effect on Motion of Larvae of Haemonchus Nematode (Haemonchus contortus) The compound of the present invention was prepared as solutions in 100% DMSO at the final concentrations of 50 ppm, 5 ppm, 0.5 ppm, 0.05 ppm and 0.005 ppm. DMSO stands for dimethyl sulfoxide. A larval suspension containing 1st-stage larvae of Haemonchus contortus harvested by the Baermann technique (for example, see K. Nakazono et al., “Inclination of Baermann funnel wall and efficiency of nematode extraction” Proc. Assoc. Pl. Prot. Kyushu 33: 126-130 (1987)) was placed at a density of 20 larvae per well in a test plate, and 0.5 μL/well of the test solution containing the compound of the present invention diluted to a predetermined concentration was added to the test plate. The plate was kept under the conditions of 27° C./95% RH for 4 days. In the test, ivermectin was used for the positive control and DMSO was used for the negative control. The motor ability of the larvae was examined with an automatic analyzer equipped with an LCD camera. The inhibitory effect on the motion of the larvae in each treatment plot was corrected based on the inhibitory effect in the plot treated with DMSO only for the negative control. The EC50 value was calculated from the data on the corrected inhibitory effect on the motion of the larvae, and graded according to the criteria shown below. The test was conducted in duplicate per plot.

Compound | EC50 value of corrected inhibitory effect on the motion of the larvae, graded
O=C(NCCc1ccc(Oc2ccnc(Cl)n2)cc1Cl)c1ccccc1I [Compound 1-29] | C or higher
O=C(NCCc1ccc(Oc2ccnc(Cl)n2)cc1Cl)c1ccccc1C(F)(F)F [Compound 1-8] | C or higher
COC(CNC(=O)c1ccccc1C(F)(F)F)c1ccc(Oc2ccc(C(F)(F)F)cc2)cc1Cl (centres unmarked) [Compound 1-65] | C or higher
O=C(NCCc1ccc(Oc2nccnc2C(F)(F)F)cc1Cl)c1ccccc1C(F)(F)F [Compound 1-3] | C or higher
O=C(NCCc1ccc(-c2cccnc2)cc1Cl)c1ccccc1C(F)(F)F [Compound 1-56] | C or higher
O=C(NCCc1ccc(Oc2ccc(C(F)(F)F)cc2)cc1Cl)c1ccccc1I [Compound 1-40] | C or higher
COc1ccc(-c2cnc(CCNC(=O)c3ccccc3C(F)(F)F)c(Cl)c2)cc1 [Compound 2-5] | C or higher
COC(CNC(=O)c1ccccc1C(F)(F)F)c1ccc(Oc2nc3ccccc3s2)cc1Cl (centres unmarked) [Compound 1-63] | C or higher
Cc1cc(Oc2ccc(CCNC(=O)c3ccccc3I)c(Cl)c2)nc(Cl)n1 [Compound 1-31] | C or higher
CC(C)(CNC(=O)c1ccccc1C(F)(F)F)c1ccc(Oc2ccc(C(F)(F)F)cn2)cc1Cl [Compound 1-45] | C or higher
O=C(NCCc1ncc(-c2ccc(C(F)(F)F)cc2)cc1Cl)c1ccccc1C(F)(F)F [Compound 2-2] | C or higher
O=C(NCCc1ccc(Oc2ncc(Cl)cc2Cl)cc1Cl)c1ccccc1C(F)(F)F [Compound 1-1] | C or higher
O=C(NCCc1ccc(-c2cc(F)cc(F)c2)cc1Cl)c1ccccc1C(F)(F)F [Compound 1-52] | C or higher
CC(C)(CNC(=O)c1ccccc1C(F)(F)F)c1ccc(Oc2ncc(C(F)(F)F)cc2Cl)cc1Cl [Compound 1-44] | C or higher
O=C(NCCc1ccc(Oc2cnccn2)cc1Cl)c1ccccc1C(F)(F)F [Compound 1-5] | C or higher
CC(CNC(=O)c1ccccc1C(F)(F)F)c1ccc(-c2ccncc2)cc1Cl (racemic) [Compound 1-59] | C or higher
O=C(NCCc1ccc(-c2cccc(C(F)(F)F)c2)cc1Cl)c1ccccc1C(F)(F)F [Compound 1-51] | C or higher
O=C(NCCc1ccc(Oc2cnc3ccccc3n2)cc1Cl)c1ccccc1I [Compound 1-35] | C or higher
O=C(NCCc1ccc(-c2ccccc2)cc1Cl)c1ccccc1C(F)(F)F [Compound 1-54] | C or higher

Compound | EC50 value of corrected inhibitory effect on the motion of the larvae, graded
O=C(NCCc1ccc(Oc2nc3ccc(Cl)cc3s2)cc1Cl)c1ccccc1I [Compound 1-37] | C or higher
COC(CNC(=O)c1ccccc1C(F)(F)F)c1ccc(Oc2ncc(Cl)cc2Cl)cc1Cl (racemic) [Compound 1-62] | C or higher
O=C(NCCc1ccc(Oc2cc(Cl)nc(Cl)n2)cc1Cl)c1ccccc1I [Compound 1-30] | C or higher
O=C(NCCc1ccc(Oc2nccnc2Cl)cc1Cl)c1ccccc1I [Compound 1-25] | C or higher
O=C(NCCc1ccc(Oc2cnccn2)cc1Cl)c1ccccc1I [Compound 1-26] | C or higher
O=C(NCCc1ccc(Oc2nccnc2Cl)cc1Cl)c1ccccc1C(F)(F)F [Compound 1-4] | C or higher
O=C(NCCc1ccc(Oc2ncc(C(F)(F)F)cc2Cl)cc1Cl)c1ccccc1I [Compound 1-20] | C or higher
O=C(NCCc1ccc(Oc2nc3ccccc3o2)cc1Cl)c1ccccc1C(F)(F)F [Compound 1-17] | C or higher
O=C(NCCc1ccc(Oc2ccc3ccccc3n2)cc1Cl)c1ccccc1C(F)(F)F [Compound 1-13] | C or higher
O=C(NCCc1ncc(-c2cc(F)cc(F)c2)cc1Cl)c1ccccc1C(F)(F)F [Compound 2-4] | C or higher
COC(CNC(=O)c1ccccc1C(F)(F)F)c1ccc(Oc2ccc(C(F)(F)F)cn2)cc1Cl (racemic) [Compound 1-61] | C or higher
O=C(NCCc1ccc(Oc2ncc(Br)cc2Cl)cc1Cl)c1ccccc1C(F)(F)F [Compound 1-2] | C or higher
O=C(NCCc1ccc(Oc2nccnc2C(F)(F)F)cc1Cl)c1ccccc1I [Compound 1-24] | C or higher
Cc1cc(C)nc(Oc2ccc(CCNC(=O)c3ccccc3I)c(Cl)c2)n1 [Compound 1-28] | C or higher
Cc1cnc(Cl)nc1Oc1ccc(CCNC(=O)c2ccccc2C(F)(F)F)c(Cl)c1 [Compound 1-11] | C or higher
O=C(NCC1(c2ccc(Oc3ccc(C(F)(F)F)cn3)cc2Cl)CC1)c1ccccc1C(F)(F)F [Compound 1-48] | C or higher
Cc1cc(C)nc(Oc2ccc(CCNC(=O)c3ccccc3C(F)(F)F)c(Cl)c2)n1 [Compound 1-7] | C or higher
O=C(NCCc1ccc(Oc2nc3ccccc3s2)cc1Cl)c1ccccc1C(F)(F)F [Compound 1-15] | C or higher
O=C(NCC1(c2ccc(Oc3ncc(Cl)cc3Cl)cc2Cl)CC1)c1ccccc1C(F)(F)F [Compound 1-49] | C or higher

Compound | EC50 value of corrected inhibitory effect on the motion of the larvae, graded
COc1ccc(-c2ccc(CCNC(=O)c3ccccc3C(F)(F)F)c(Cl)c2)cc1 [Compound 1-53] | C or higher
O=C(NCCc1ncc(-c2cccc(C(F)(F)F)c2)cc1Cl)c1ccccc1C(F)(F)F [Compound 2-3] | C or higher
CC(CNC(=O)c1ccccc1C(F)(F)F)c1ccc(-c2ccc(C(F)(F)F)cc2)cc1Cl (racemic) [Compound 1-57] | C or higher
O=C(NCCc1ccc(Oc2nc3ccc(Cl)cc3s2)cc1Cl)c1ccccc1C(F)(F)F [Compound 1-16] | C or higher
O=C(NCCc1ccc(Oc2nc3ccccc3o2)cc1Cl)c1ccccc1I [Compound 1-38] | C or higher
Cc1cc(Oc2ccc(CCNC(=O)c3ccccc3C(F)(F)F)c(Cl)c2)nc(Cl)n1 [Compound 1-10] | C or higher
COc1cc(OC)nc(Oc2ccc(CCNC(=O)c3ccccc3I)c(Cl)c2)n1 [Compound 1-27] | C or higher
CC(CNC(=O)c1ccccc1C(F)(F)F)c1ccc(Oc2ncc(Cl)cc2Cl)cc1Cl (racemic) [Compound 1-43] | C or higher
O=C(NCCc1ccc(Oc2ncc(Cl)cc2Cl)cc1Cl)c1ccccc1I [Compound 1-22] | C or higher
O=C(NCCc1ccc(Oc2ccc(C(F)(F)F)cc2)cc1Cl)c1ccccc1C(F)(F)F [Compound 1-19] | C or higher
CC(C)(CNC(=O)c1ccccc1C(F)(F)F)c1ccc(Oc2ncc(Cl)cc2Cl)cc1Cl [Compound 1-46] | C or higher
O=C(NCCc1ccc(Oc2cnc3ccccc3n2)cc1Cl)c1ccccc1C(F)(F)F [Compound 1-14] | C or higher
O=C(NCCc1ccc(Oc2ccccc2)cc1Cl)c1ccccc1C(F)(F)F [Compound 1-18] | C or higher
COc1cc(OC)nc(Oc2ccc(CCNC(=O)c3ccccc3C(F)(F)F)c(Cl)c2)n1 [Compound 1-6] | C or higher
O=C(NCCc1ccc(-c2ccncc2)cc1Cl)c1ccccc1C(F)(F)F [Compound 1-55] | C or higher
O=C(NCCc1ccc(Oc2ncc(Br)cc2Cl)cc1Cl)c1ccccc1I [Compound 1-23] | C or higher
Cc1cnc(Cl)nc1Oc1ccc(CCNC(=O)c2ccccc2I)c(Cl)c1 [Compound 1-32] | C or higher
O=C(NCCc1ccc(Oc2ccc3ccccc3n2)cc1Cl)c1ccccc1I [Compound 1-34] | C or higher
